Structures are written as SMILES. A value given as a limit tells only on which side of the number the result lay.

A short description of data set [1]: Half life in human plasma. Format: ADME, cell-free.
The nature of data set [2]: Half life in human blood. Format: ADME, tissue-based.
Data set [3] can be described thus: Half life of compound in human plasma. Format: ADME, cell-free.
Data set [4] can be described thus: Half life of compound in PBS buffer at pH 7.4. Format: physicochemical.
Data set [5] is described as follows: Half life of compound in PBS buffer at pH 7.4 at 50 uM by HPLC analysis. Format: physicochemical.
A short description of data set [6]: Half life in human plasma at 10 uM. Format: ADME, cell-free.
Data set [7] in a line: Half life in human plasma measured after 2 days.
Data set [8] can be described thus: Half life in human liver microsomes at 1 uM measured up to 30 mins by LC-MS/MS analysis. Format: ADME, Microsome.
Data set [9] can be described thus: Half life in human plasma by LC-MS/MS analysis. Format: ADME, cell-free.

What is called half-life is the time needed for the level to fall by half in the phase considered. A higher half-life goes with slow decline. `CC(=O)Oc1ccccc1C(=O)OC[S+](C)[O-]` (centres undefined) had a half-life in [1] of 14 min.
On to `CC(=O)Oc1ccccc1C(=O)O[C@@H]1CO[C@H]2[C@@H]1OC[C@@H]2OC(=O)c1ccccc1O`, for which the half-life in data set [2] amounted to 1 min.
In data set [3], `CC(=O)Oc1ccccc1C(=O)O[C@H]1CO[C@H]2[C@@H]1OC[C@H]2OC(=O)c1ccccc1OC(C)=O` showed a half-life of 1 min.
Compound `COc1ccccc1COC1(C)OC(=O)c2ccccc2O1` (centres undefined) displayed a half-life in data set [4] of 26.7 min.
`CC(=O)Oc1ccccc1C(=O)OCOC(=O)c1ccc(OCCCO[N+](=O)[O-])c(OC(=O)CCN)c1` showed a half-life at 50 µM in data set [5] of 57 min. In data set [6], this compound registered a half-life at 10 µM of less than 1 min.
`CC(=O)Oc1ccccc1C(=O)Oc1ccccc1C=O` had a half-life at 48 h in data set [7] of 15 min.
On to `CCOP(=O)(OCC)OCC(COC(=O)c1ccccc1OC(C)=O)OP(=O)(OCC)OCC` (centres undefined), for which, in data set [8], the half-life at 1 µM came to 28 min.
`CC(=O)Oc1ccccc1C(=O)O[C@H]1CO[C@H]2[C@@H]1OC[C@H]2O[N+](=O)[O-]` showed a t1/2 in data set [9] of 0.183 min.

The record behind these values is ChEMBL document CHEMBL5233234, “True or false? Challenges and recent highlights in the development of aspirin prodrugs” (Eur J Med Chem, 2020).
